From publication PMC12040169 (PLOS Biology, 2025) come the findings set out here.

In general, viability refers to a read-out of living cells in per cent, often relative to untreated cells.

One series is described as follows: in vitro. The conditions noted are these: human, hela cells, % viability.
In the case of `COc1ccccc1C(=O)N1CCC(Cc2cccc(-c3cccs3)c2)(C(N)=O)CC1` [CBK285742], the viability at 28.5 h, 10 µM worked out at 99.8%.
Regarding `COc1ccccc1CC(=O)N1CCC(Cc2cccc(-c3cccs3)c2)(C(N)=O)CC1` [CBK285743], the viability at 28.5 h, 10 µM was 93.3%.
Take `COc1ccc(CC(=O)N2CCC(Cc3cccc(-c4cccs4)c3)(C(N)=O)CC2)cc1` [CBK285744]: the viability at 28.5 h, 10 µM was 93.2%.
On to `COc1ccc(C(NC(=O)c2ccc(Cn3cncn3)cc2)c2ccccc2)cc1` (centres unmarked) [CBK285749], for which the viability at 28.5 h, 10 µM was determined as 106%.
Turning to `CC(C)NC(=O)C1(Cc2ccc(-c3ccccc3F)cc2)CCN(C(=O)C(C)C)CC1` [CBK285754], the viability at 28.5 h, 10 µM worked out at 102%.
On to `CNC(=O)C1(Cc2ccc(-c3cccc(C)c3)cc2)CCN(C(=O)C(C)(C)C)CC1` [CBK285755], for which the viability at 28.5 h, 10 µM stood at 98.6%.
The same measure, in the same setting: the result for `Cc1cccc(-c2ccc(CC3(C(=O)NC(C)C)CCN(C(=O)C(C)C)CC3)cc2)c1` [CBK285756] reads 99.8%; that for `COCC(=O)N1CCC(Cc2ccc(-c3cccc(C)c3)cc2)(C(=O)NC(C)C)CC1` [CBK285759], 93.6%; that for `CCCC(=O)N1CCC(Cc2ccc(-c3cccc(C)c3)cc2)(C(=O)NC(C)C)CC1` [CBK285760], 93.9%.
As to `CNC(=O)C1(Cc2ccc(-c3ccccc3)cc2)CCN(C(=O)c2ccccc2)CC1` [CBK285761], the viability at 28.5 h, 10 µM amounted to 96.5%.
For `CNC(=O)C1(Cc2ccc(-c3ccccc3)cc2)CCN(C(=O)C2CCCCC2)CC1` [CBK285762], the viability at 28.5 h, 10 µM came to 113%.
Regarding `CNC(=O)C1(Cc2ccc(-c3ccccc3)cc2)CCN(C(=O)c2ccccc2OC)CC1` [CBK285767], the viability at 28.5 h, 10 µM was determined as 85.9%.
Regarding `CNC(=O)C1(Cc2ccc(-c3ccccc3)cc2)CCN(C(=O)Cc2ccc(C)cc2)CC1` [CBK285769], the viability at 28.5 h, 10 µM is 90.4%.
Consider `NC(=O)C1(Cc2ccc(-c3ccccc3)cc2)CCN(C(=O)CCc2ccccc2)CC1` [CBK285772], for which the viability at 28.5 h, 10 µM is 102%.
Turning to `NC(=O)C1(Cc2ccc(-c3ccccc3)cc2)CCN(C(=O)COc2ccccc2)CC1` [CBK285773], the viability at 28.5 h, 10 µM was determined as 95.9%.
`COc1ccccc1C(=O)N1CCC(Cc2ccc(-c3ccccc3)cc2)(C(N)=O)CC1` [CBK285774]: the viability at 28.5 h, 10 µM was 100%.
Still for that read-out and setting: the result for `CCOc1ccccc1C(=O)N1CCC(Cc2ccc(-c3ccccc3)cc2)(C(N)=O)CC1` [CBK285775] reads 97%.
In the case of `COc1cccc(CC(=O)N2CCC(Cc3ccc(-c4ccccc4)cc3)(C(N)=O)CC2)c1` [CBK285776], the viability at 28.5 h, 10 µM is 94.2%.
As to `COc1ccccc1CC(=O)N1CCC(Cc2ccc(-c3ccccc3)cc2)(C(N)=O)CC1` [CBK285777], the viability at 28.5 h, 10 µM worked out at 95.4%.
Turning to `COc1cccc(C(=O)N2CCC(Cc3cccc(-c4cccs4)c3)(C(N)=O)CC2)c1` [CBK285781], the viability at 28.5 h, 10 µM turned out to be 97.8%.
Still for that read-out and setting: the result for `NC(=O)C1(Cc2cccc(-c3cccs3)c2)CCN(C(=O)Cc2cccc(F)c2)CC1` [CBK285783] reads 98%.
Same read-out and setting: the value for `CN(C)C(=O)C1(Cc2ccc(-c3cccs3)cc2)CCN(C(=O)Cc2ccccc2)CC1` [CBK285784] was 93.2%; that for `CCNC(=O)C1(Cc2ccc(-c3ccncc3)cc2)CCN(C(=O)CC2CCCCC2)CC1` [CBK285785] was 89.8%; that for `CCCC(=O)N1CCC(Cc2ccc(-c3cccc(C)c3)cc2)(C(=O)NC)CC1` [CBK285786] was 104%.
In the case of `CNC(=O)C1(Cc2ccc(-c3cccc(C)c3)cc2)CCN(C(=O)CC(C)C)CC1` [CBK285787], the viability at 28.5 h, 10 µM was 116%.
On to `NC(=O)C1(Cc2ccc(-c3ccccc3)cc2)CCN(C(=O)c2ccccc2)CC1` [CBK285789], for which the viability at 28.5 h, 10 µM is 95.1%.
Regarding `COc1ccccc1C(=O)N1CCC(Cc2ccc(-c3cccc(C)c3)cc2)(C(N)=O)CC1` [CBK285792], the viability at 28.5 h, 10 µM worked out at 89.8%.
As for `CNC(=O)C1(Cc2ccc(-c3cccs3)cc2)CCN(C(=O)C2CCCCC2)CC1` [CBK285793], the viability at 28.5 h, 10 µM was 88%.
For the compound `CCNC(=O)C1(Cc2ccc(-c3cccs3)cc2)CCN(C(=O)c2ccccc2)CC1` [CBK285794], the viability at 28.5 h, 10 µM was determined as 94.5%.
In the case of `Cc1cccc(-c2ccc(CC3(C(N)=O)CCN(C(=O)CCc4ccccc4)CC3)cc2)c1` [CBK285796], the viability at 28.5 h, 10 µM amounted to 110%.
The same measure, in the same setting: the value for `Cc1cccc(-c2ccc(CC3(C(N)=O)CCN(C(=O)COc4ccccc4)CC3)cc2)c1` [CBK285797] was 93.6%.
With `Cc1[nH]c2cccc(C(=O)N3CCOC(C)(C(=O)NC4CCCC4)C3)c2c1C` (centres unmarked) [CBK285800], the viability at 28.5 h, 10 µM came to 87.3%.
As for `Cc1ccc2[nH]c(Cc3ccc(NC(=O)CCc4nc5ccccc5[nH]4)cc3)nc2c1` [CBK285801], the viability at 28.5 h, 10 µM turned out to be 87%.
Same read-out and setting: the result for `Cc1ccc2[nH]c(Cc3ccc(NC(=O)c4nc5ccccc5n(C)c4=O)cc3)nc2c1` [CBK285802] reads 83.8%; that for `COc1ccc(OC)c(C(=O)N2CCNC(=O)C2Cc2ccc(-c3cccs3)cc2)c1` (centres unmarked) [CBK285803], 111%.
For the compound `CCN1CCN(C(=O)Cc2ccc(OC)cc2)C(Cc2ccc(-c3ccncc3)cc2)C1=O` (centres unmarked) [CBK285804], the viability at 28.5 h, 10 µM was found to be 106%.
Still for that read-out and setting: the result for `Cc1c(C(=O)NCCOc2ccc(-c3ccccc3)cc2)sc2nc[nH]c(=O)c12` [CBK285805] reads 92.2%; that for `O=C1NCCN(C(=O)c2cccc3cccnc23)C1Cc1ccc(-c2cccs2)cc1` (centres unmarked) [CBK285809], 81.4%.
Take `Cn1nc(C(C)(C)C)cc1C(=O)N1CCNC(=O)C1Cc1ccc(-c2cccs2)cc1` (centres unmarked) [CBK285810]: the viability at 28.5 h, 10 µM came to 92.2%.
`CCN1CCN(C(=O)c2cccc(N(C)C)c2)C(Cc2ccc(-c3ccncc3)cc2)C1=O` (centres unmarked) [CBK285813]: the viability at 28.5 h, 10 µM was determined as 101%.
As for `O=C(Nc1ccc(OCc2ccccc2F)cc1)c1ccc(-n2cnnc2)cc1` [CBK285816], the viability at 28.5 h, 10 µM stood at 81.4%.
For `COc1ccc(-c2ccc(OC)cc2C(=O)Nc2cccc(-n3cccn3)c2)cc1` [CBK285818], the viability at 28.5 h, 10 µM turned out to be 94.6%.
On the same count and under the same terms, the result for `Cc1ccc(CN2CCC(N3C(=O)NC4(CCN(CC(C)C)CC4)C3=O)CC2)cc1C` [CBK285822] reads 96.9%; that for `O=C(Nc1cccc(-c2nc3ccccc3s2)c1)c1ccc(Cn2cnnn2)cc1` [CBK285823], 85.2%; that for `COc1ccc(CC(=O)N2CCNC(=O)C2Cc2ccccc2-c2ccccc2)cc1OC` (centres unmarked) [CBK285827], 102%.
For `O=C1NCCN(C(=O)c2[nH]nc3c2CCCCC3)C1Cc1ccccc1-c1ccc(F)cc1` (centres unmarked) [CBK285831], the viability at 28.5 h, 10 µM was 98.1%.
As for `CC(C)c1cc(C(=O)N2CCN(C)C(=O)C2Cc2ccccc2-c2ccc(F)cc2)[nH]n1` (centres unmarked) [CBK285833], the viability at 28.5 h, 10 µM was 92.1%.
`Cc1c(C(=O)Nc2ccc(OCc3ccccc3F)cc2)sc2nc[nH]c(=O)c12` [CBK285834]: the viability at 28.5 h, 10 µM was determined as 98.5%.
On the same count and under the same terms, the value for `CNc1nc(C2CCN(C(=O)c3ccc(N4CCC(C)CC4)cc3)C2)nc2c1CCN(C)C2` (centres unmarked) [CBK285835] was 106%; that for `CCCN1CCN(C(=O)c2ccc(=O)n(C)c2)C(Cc2ccccc2-c2ccccc2)C1=O` (centres unmarked) [CBK285836] was 108%; that for `CC(=O)Nc1ccc(C(=O)N2CCNC(=O)C2Cc2ccccc2-c2cccc(C)c2)cc1` (centres unmarked) [CBK285837] was 106%.
As for `Cc1ccc2[nH]c(-c3cccc(NC(=O)c4cccc(CN5CCCC5=O)c4)c3)nc2c1` [CBK285838], the viability at 28.5 h, 10 µM was 85.8%.
Turning to `CCOc1ccccc1C(=O)N1CCCCC1c1ncc(C(=O)Nc2ccccc2)c(C)n1` (centres unmarked) [CBK285840], the viability at 28.5 h, 10 µM is 103%.
With `CCOc1ccccc1-c1ccccc1NC(=O)c1cc(=O)n(C)c2ccccc12` [CBK285843], the viability at 28.5 h, 10 µM turned out to be 100%.
Consider `Cc1nc(C2CCN(C(=O)CC3CCCC3)CC2)ncc1C(=O)Nc1ccc(Cl)cc1` [CBK285847], for which the viability at 28.5 h, 10 µM came out at 97.8%.
Turning to `COc1cccc(-c2ccc(NC(=O)CCC3C(=O)Nc4ccccc43)cc2)c1` (centres unmarked) [CBK285851], the viability at 28.5 h, 10 µM worked out at 116%.
For `CCN(Cc1cnc(C)s1)[C@H]1CCO[C@@H](c2ccccc2-c2ccc(OC)cc2)C1` [CBK285853], the viability at 28.5 h, 10 µM turned out to be 95.5%.
With `CCOc1ccccc1-c1ccccc1NC(=O)c1nc2ccccc2n(C)c1=O` [CBK285855], the viability at 28.5 h, 10 µM stood at 90.1%.
On the same count and under the same terms, the result for `CC(C)CNC(=O)c1cc([C@H]2CC[C@H](CNC(=O)Cn3cccn3)CC2)nc2ccccc12` [CBK285860] reads 102%; that for `CC(C)NC(=O)c1cc([C@H]2CC[C@H](CNC(=O)CN3CCCC3)CC2)nc2ccccc12` [CBK285861], 85.7%; that for `CCn1nc(C(=O)Nc2ccccc2-c2ccc(OC)cc2)c2ccccc2c1=O` [CBK285864], 94.1%.
Take `COc1ccc(-c2ccccc2NC(=O)c2cccc(CN3CCCC3=O)c2)cc1` [CBK285865]: the viability at 28.5 h, 10 µM was 91.4%.
For the compound `Cc1nc(C2CCCCN2C(=O)CCc2ccccc2)ncc1C(=O)Nc1ccc(F)cc1` (centres unmarked) [CBK285870], the viability at 28.5 h, 10 µM amounted to 95.3%.
Take `Cc1nc(C2CCCCN2C(=O)COc2ccccc2)ncc1C(=O)Nc1ccc(F)cc1` (centres unmarked) [CBK285871]: the viability at 28.5 h, 10 µM came to 98.6%.
On the same count and under the same terms, the value for `CC(C)NC(=O)c1sc2ccccc2c1C1CCN(C(=O)COc2ccccc2)C1` (centres unmarked) [CBK285875] was 113%; that for `CNC(=O)c1sc2ccccc2c1C1CCN(C(=O)Cc2coc3c(C)c(C)ccc23)C1` (centres unmarked) [CBK285876] was 90.3%; that for `CNC(=O)c1sc2ccccc2c1C1CCN(S(=O)(=O)c2ccc(C)c(C)c2)C1` (centres unmarked) [CBK285877] was 85.8%.
In the case of `CC(C)NC(=O)c1sc2ccccc2c1C1CN(Cc2cccc3ncccc23)CCO1` (centres unmarked) [CBK285879], the viability at 28.5 h, 10 µM was found to be 85.6%.
For the compound `CNC(=O)c1sc2ccccc2c1C1CCN(Cc2cnc(-c3ccc(C)cc3)nc2)C1` (centres unmarked) [CBK285883], the viability at 28.5 h, 10 µM came out at 108%.

The series is the same for the next values; noted with them: human, hela cells, % viability, bulk resorufin, single well.
In the case of `O=C1NC(=O)C(CCC(=O)N2CCN(c3nc4ccccc4s3)CC2)C(=O)N1` [CBK285807], the viability at 28.5 h, 10 µM came out at 86.6%.
As for `O=C(CCC1C(=O)NC(=O)NC1=O)Nc1cccc(-c2nc3ccccc3s2)c1` [CBK285844], the viability at 28.5 h, 10 µM is 105%.
